Results as given in patent US20250129091A1, “THIENOPYRROLOTRIAZINE COMPOUNDS, THEIR PREPARATION AND THEIR THERAPEUTIC USE” (Sanofi, priority 2022, published 2025).
pIC50: −log10 of the molar value. Where two headings read alike, the source gives them in different places.

What was measured:
NLRP3 inflammasome = experiment: IL-1β secretion assay (LPS-primed, nigericin-activated THP-1 cells, MSD readout); format: cell-based; settings: Homo sapiens, read-out: IL1b IC50
In short: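 THP-1 monocytes primed with LPS (10 ng/mL, 3 h, 37 °C), then co-incubated 2 h with serially diluted compound and nigericin 10 μM (final). Supernatant IL-1β measured by MSD electrochemiluminescence immunoassay. IC50 derived from four-parameter logistic fit of % inhibition versus concentration.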

TNF-α secretion = TNF-α secretion assay (PMA-differentiated THP-1 cells, LPS-triggered, MSD readout); format: cell-based; settings: Homo sapiens, LPS 24 h; for inhibition at 3 µM: compound at 3 μM; for inhibition at 10 µM: compound at 10 μM
Description: Monocytic THP-1 cells (DSMZ) were maintained in RPMI media (RPMI 1640 Medium (1×) +10% FBS, biowest S181H). Cells were then differentiated at 160,000 cells per well in 96-well flat bottom cell culture plates with RPMI+0.1% Bovine Serum Albumin solution and 0.5 μM phorbol 12-myristate 13-acetate (PMA; Sigma, ref:P8139) overnight at 37° C. Experimental compounds were prepared and added as described above. TNF-α secretion was triggered by the addition of 0.5 μg/mL LPS (invivoGen, tlrl-3pelps) and cells were incubated for 24 h. 2.5 μL supernatant was removed, and TNF-α levels were monitored using an MSD assay (mesoscale, K15049) according to manufacturers' instructions.
IC50 values were calculated from the plot of percentage of inhibition versus the inhibitor concentration by a logistics fit according to: y=A2+(A1−A2)/(1+(x/IC50)^p) where y is the %-inhibition at the inhibitor concentration, x. A1 is the lowest inhibition value, i.e., 0%, and A2 the maximum inhibition value, i.e., 100%. The exponent, p, is the Hill coefficient. The curve fitting was conducted with an internally developed software.

[1] = Brain over plasma ratio evaluation; format: in vivo; settings: mouse, brain and plasma, iv; female C57B16 mice, single i.v. 1 mg/kg, 0.25 h post dosing, geometric mean of 3 animals
Description: Brain Over Plasma Ratio Evaluation
A solution of 3 mg of compound in a generic vehicle (Glycofurol/solutol/Dextrose 5%: 10%/5%/85%, adjusted at pH3), final concentration 0.2 mg/ml, are stirred overnight at ambient temperature whilst protected from light.
Female C57B16 mice between the ages of 8-12 weeks are administered with the prepared solution, as single intravenous dose of 1 mg/kg into the tail vein with a dose volume of 5 ml/kg. A total of 3 animal replicates are evaluated for each compound utilizing a terminal sampling approach. After 0.25 h post dosing, under anesthesia, 400 μL of blood and the whole brain are collected. Blood sample is centrifuged at 4° C. for 10 minutes at 1500 g; brain is weighted, homogenized using deionized water to give a final ratio of (1/2:w/v). Plasma and brain concentrations are measured by an exploratory LC-MS/MS method.
Individual brain over plasma concentration ratio is calculated for each animal, and geometric mean value is reported.

pIC50 (NLRP3 inflammasome; THP-1, LPS-primed)	Kp at 0.25 h [1]	SMILES	inhibition at 3 µM (TNF-α secretion) [%]	inhibition at 10 µM (TNF-α secretion) [%]	pIC50 (NLRP3 inflammasome; LPS-primed)
7.43	1.56	CC(C)c1nn(CC(=O)N[C@@H]2CCCN(CCCF)C2)c(=O)c2cc3ccsc3n12.O=CO [Example 41, (R)—N-(1-(3-fluoropropyl)piperidin-3-yl)-2-(8-isopropyl-5-oxothieno[3′,2′:4,5]pyrrolo[1,2-d][1,2,4]triazin-6(5H)-yl)acetamide formate]	–	–	–
6.88	0.42	CC(C)c1nn(CC(=O)N[C@@H]2CCCN(CC3CC(F)(F)C3)C2)c(=O)c2cc3ccsc3n12.O=CO [Example 43, (R)—N-(1-((3,3-difluorocyclobutyl)methyl)piperidin-3-yl)-2-(8-isopropyl-5-oxothieno [3′,2′:4,5]pyrrolo[1,2-d][1,2,4]triazin-6(5H)-yl)acetamide formate]	–	–	–
7.47	1.15	CC(C)c1nn(CC(=O)NC2CCCN(C(C)(C)C)C2)c(=O)c2cc3cc(Br)sc3n12 (centres unmarked) [Example 59, 2-(4-bromo-12-isopropyl-9-oxo-3-thia-1,10,11-triazatricyclo[6.4.0.02,6]dodeca-2(6),4,7,11-tetraen-10-yl)-N-(1-tert-butyl-3-piperidyl)acetamide]	–	–	–

Second part, the compound before the results:

SMILES	pIC50 (NLRP3 inflammasome; THP-1, LPS-primed)	Kp at 0.25 h [1]	inhibition at 3 µM (TNF-α secretion) [%]	inhibition at 10 µM (TNF-α secretion) [%]	pIC50 (NLRP3 inflammasome; LPS-primed)
CC(C)c1nn(CC(=O)N[C@@H]2CCCN(C3CCC3)C2)c(=O)c2cc3ccsc3n12.O=CO [Example 11, (R)—N-(1-cyclobutylpiperidin-3-yl)-2-(8-isopropyl-5-oxothieno[3′,2′:4,5]pyrrolo[1,2-d][1,2,4]triazin-6(5H)-yl)acetamide formate]	7.35	3.2	20.1	-12.7	–
C=O.CC(C)c1nn(CC(=O)N[C@@H]2CCCN(CC3CC3(F)F)C2)c(=O)c2cc3ccsc3n12 (stereo partly drawn) [Example 18, N-((3R)-1-((2,2-difluorocyclopropyl)methyl)piperidin-3-yl)-2-(8-isopropyl-5-oxothieno [3′,2′:4,5]pyrrolo[1,2-d][1,2,4]triazin-6(5H)-yl)acetamide compound with formaldehyde]	–	1.56	9.6	21.6	6.63
CC(C)c1nn(CC(=O)N[C@@H]2CCCN(C3CCC3)C2)c(=O)c2cc3cc(Cl)sc3n12.O=CO [Example 10, (R)-2-(2-chloro-8-isopropyl-5-oxothieno[3′,2′:4,5]pyrrolo[1,2-d][1,2,4]triazin-6(5H)-yl)-N-(1-cyclobutylpiperidin-3-yl)acetamide formate]	7.00	5.84	3	-11.9	–
CC(C)c1nn(CC(=O)N[C@@H]2CCCN(C3CC3)C2)c(=O)c2cc3cc(Cl)sc3n12.O=C(O)C(F)(F)F [Example 6, (R)-2-(2-chloro-8-isopropyl-5-oxothieno[3′,2′:4,5]pyrrolo[1,2-d][1,2,4]triazin-6(5H)-yl)-N-(1-cyclopropylpiperidin-3-yl)acetamide 2,2,2-trifluoroacetate]	6.80	7.58	–	–	–
